Data taken from US7070928B2, “Evolving new molecular function” (President and Fellows of Harvard College, priority 2001, dated 2006).

What was measured:
Taq DNA polymerase = Taq DNA polymerase (Thermus aquaticus, UniProt P19821); test: acceptance of modified nucleotide triphosphates in PCR; assay type: biochemical; conditions: 30 PCR cycles, pUC19 template DNA, three natural deoxynucleotide triphosphates, gel electrophoresis (FIG. 51)
Excerpt: The ability of thermostable DNA polymerases suitable for PCR amplification to accept these modified nucleotide triphosphates containing metal-binding functionality. Non-natural nucleotide triphosphates were purified by ion exchange HPLC and added to PCR reactions containing Taq DNA polymerase, three natural deoxynucleotide triphosphates, pUC19 template DNA, and two DNA primers. Primers were chosen to generate PCR products ranging from 50 to 200 base pairs in length. Control PCR reactions contained the four natural deoxynucleotide triphosphates and no non-natural nucleotides. PCR reactions were analyzed by agarose or denaturing acrylamide gel electrophoresis. […] Previous findings on the acceptance of 7 by Taq DNA polymerase are in conflict, with-both non-acceptance (K. Sakthivel et al. Angew. Chem. Int. Ed. Engl. 1998, 37, 2872–2875) and acceptance (S. E. Lee et al. Nucleic Acids Res. 2001, 29, 1565–73) reported.

αvβ3 integrin receptor = αvβ3 integrin receptor (Homo sapiens, UniProt P05106+P06756); conditions: benchmark αvβ3 integrin antagonists; cited from earlier work
Sequence of αvβ3 integrin receptor (P06756 31-889 limits assumed): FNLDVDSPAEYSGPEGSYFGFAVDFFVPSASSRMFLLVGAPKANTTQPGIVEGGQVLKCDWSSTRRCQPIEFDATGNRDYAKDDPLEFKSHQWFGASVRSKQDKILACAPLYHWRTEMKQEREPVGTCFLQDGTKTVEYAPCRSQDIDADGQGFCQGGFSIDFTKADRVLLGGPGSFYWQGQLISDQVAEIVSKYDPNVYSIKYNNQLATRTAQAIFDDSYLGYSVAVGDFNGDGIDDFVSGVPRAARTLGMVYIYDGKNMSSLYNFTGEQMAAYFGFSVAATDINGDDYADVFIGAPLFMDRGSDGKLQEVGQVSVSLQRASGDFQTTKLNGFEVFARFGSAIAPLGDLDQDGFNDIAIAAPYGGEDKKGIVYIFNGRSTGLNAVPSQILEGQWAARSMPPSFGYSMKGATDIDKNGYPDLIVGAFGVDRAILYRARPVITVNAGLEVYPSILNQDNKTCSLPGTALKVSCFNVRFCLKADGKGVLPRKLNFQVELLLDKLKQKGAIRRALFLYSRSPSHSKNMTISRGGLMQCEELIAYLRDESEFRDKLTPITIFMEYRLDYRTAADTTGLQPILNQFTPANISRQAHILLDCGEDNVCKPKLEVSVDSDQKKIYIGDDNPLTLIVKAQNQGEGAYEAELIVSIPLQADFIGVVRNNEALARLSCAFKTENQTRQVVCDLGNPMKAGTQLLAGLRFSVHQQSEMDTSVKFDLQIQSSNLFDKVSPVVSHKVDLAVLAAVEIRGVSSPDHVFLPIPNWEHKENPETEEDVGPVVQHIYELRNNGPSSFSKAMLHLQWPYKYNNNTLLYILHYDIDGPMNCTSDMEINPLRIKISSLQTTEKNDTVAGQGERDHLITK
Sequence of αvβ3 integrin receptor (P06756 891-1048 partner limits assumed): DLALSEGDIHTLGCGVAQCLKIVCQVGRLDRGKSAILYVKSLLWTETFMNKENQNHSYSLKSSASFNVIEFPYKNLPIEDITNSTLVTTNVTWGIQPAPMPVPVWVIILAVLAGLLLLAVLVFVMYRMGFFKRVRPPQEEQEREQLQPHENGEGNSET
Sequence of αvβ3 integrin receptor (P05106 27-788): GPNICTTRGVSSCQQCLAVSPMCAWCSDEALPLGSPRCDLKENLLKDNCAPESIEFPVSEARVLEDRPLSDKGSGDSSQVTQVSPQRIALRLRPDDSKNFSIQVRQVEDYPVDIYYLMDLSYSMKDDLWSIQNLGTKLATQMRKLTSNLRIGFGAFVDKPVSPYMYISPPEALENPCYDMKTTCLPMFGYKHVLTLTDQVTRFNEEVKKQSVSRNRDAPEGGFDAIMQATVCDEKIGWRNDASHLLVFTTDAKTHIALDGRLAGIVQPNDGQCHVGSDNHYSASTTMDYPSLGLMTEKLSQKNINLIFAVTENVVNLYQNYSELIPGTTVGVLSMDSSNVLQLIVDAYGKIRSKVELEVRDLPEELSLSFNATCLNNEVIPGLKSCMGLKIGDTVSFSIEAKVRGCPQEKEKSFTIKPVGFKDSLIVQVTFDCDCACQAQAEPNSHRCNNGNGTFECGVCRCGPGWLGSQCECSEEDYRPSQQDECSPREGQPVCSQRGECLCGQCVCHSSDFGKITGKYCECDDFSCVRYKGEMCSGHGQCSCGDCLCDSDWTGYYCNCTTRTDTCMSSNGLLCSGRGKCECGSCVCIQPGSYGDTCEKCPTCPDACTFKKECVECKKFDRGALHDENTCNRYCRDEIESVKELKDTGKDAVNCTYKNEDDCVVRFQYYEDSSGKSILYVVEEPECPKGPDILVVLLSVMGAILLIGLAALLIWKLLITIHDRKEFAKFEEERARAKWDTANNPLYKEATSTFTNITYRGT

Sequence of Taq DNA polymerase (P19821 whole entry): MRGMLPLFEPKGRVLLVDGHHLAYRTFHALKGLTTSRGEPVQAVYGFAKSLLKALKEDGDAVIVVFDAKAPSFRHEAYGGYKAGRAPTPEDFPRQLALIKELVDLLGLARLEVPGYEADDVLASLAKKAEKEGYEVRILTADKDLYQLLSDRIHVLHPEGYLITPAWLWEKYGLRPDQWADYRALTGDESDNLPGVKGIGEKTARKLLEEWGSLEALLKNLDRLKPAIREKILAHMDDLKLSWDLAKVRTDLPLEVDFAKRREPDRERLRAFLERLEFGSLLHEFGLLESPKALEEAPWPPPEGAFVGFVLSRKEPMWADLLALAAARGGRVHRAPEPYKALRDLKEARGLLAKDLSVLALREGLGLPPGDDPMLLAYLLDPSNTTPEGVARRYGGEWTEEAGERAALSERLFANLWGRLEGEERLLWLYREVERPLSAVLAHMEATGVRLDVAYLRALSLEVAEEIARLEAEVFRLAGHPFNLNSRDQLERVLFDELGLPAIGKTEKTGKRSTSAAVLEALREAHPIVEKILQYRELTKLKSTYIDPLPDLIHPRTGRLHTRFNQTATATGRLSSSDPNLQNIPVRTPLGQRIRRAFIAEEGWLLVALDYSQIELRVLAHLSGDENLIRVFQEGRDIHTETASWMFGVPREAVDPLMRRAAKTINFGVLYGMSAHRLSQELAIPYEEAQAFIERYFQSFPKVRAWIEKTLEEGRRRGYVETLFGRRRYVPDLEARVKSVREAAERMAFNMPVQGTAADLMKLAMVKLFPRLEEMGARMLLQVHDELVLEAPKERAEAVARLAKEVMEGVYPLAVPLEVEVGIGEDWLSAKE

O=C(NCC=Cc1cn(C2CC(O)C(COP(=O)(O)OP(=O)(O)OP(=O)(O)O)O2)c(=O)[nH]c1=O)C(F)(F)F (centres unmarked) [triphosphate of 23]
incorporation by Taq DNA polymerase (Taq DNA polymerase): not an efficient polymerase substrate

GRGDSPK [linear peptide, benchmark αvβ3 integrin antagonist]
IC50 (αvβ3 integrin receptor): 0.21 µM
